Patent US9045401B2, “Methods for treating or ameliorating a melanoma and killing melanoma cells” (THE REGENTS OF THE UNIVERSITY OF CALIFORNIA, priority 2007, dated 2015)
≈ marks a conversion by molar mass, not a printed value.

Experiments:
A-549 lung cancer cells = experiment: XTT cell proliferation / viability assay; assay type: cell-based, human; conditions: for IC50: Homo sapiens
Method: (§1) Cell lines. Cells and cell lines were maintained in either DMEM or RPMI supplemented with 10% FCS. The caspase-deficient NB7 neuroblastoma cells have been previously described (33). C8-deficient and reconstituted jurkat cells were provided by Dr. Steve Hedrick (UCSD). Silencing of Caspase-8 gene expression in the A549 cells was performed through the use of delivering shRNA in a lentiviral format. Briefly 293 T cells were transfected with caspase-8, (Open Biosystems) or scrambled (Addgene) shRNAs in pLK0.1 lentiviral vector, together with lentiviral packaging plasmids (PMLDL, VSV-G and RSV-REV) using fugene6. The ratio of target ShRNAs and packaging plasmids was ShRNA/PMLDL/VSV-G/RSV-REV, 10/10/6/4 μg. Lentiviral supernatants from 293 T cells were harvested after 48 hours and used to infect A549 cells. Viral constructs were incubated for 24 h with A549 cell lines prior to replacing media with selective media containing puromycin (1 μg/ml). The suppression of caspase-8 was verified by western blot.
Cytotoxicity Assay. Cytotoxicity of ScA was assessed using the XTT cell proliferation assay. Briefly cells were plated on 96 well plates (5,000 per well) and incubated over night at 37° C. to allow for attachment and spreading. After 24 h, ScA was added from a DMSO stock, previously frozen at −80C as added directly from serial dilutions in DMSO at concentrations ranging from 100 uM to 100 fM. After 72 h, XTT (Aldrich Chemicals) was added to a final concentration of 250 ug/well. The plates were then incubated under standard tissue culture conditions until the control wells (DMSO) reached an OD value between 1.0-1.5. as measured at 450 nm using a microtiter plate reader. The cell viability-drug dilution profiles were obtained from sigma plots, and drug concentrations which inhibited growth by 50% were calculated from multiple runs. (IC50)

[1] = test system: NB7 caspase 8 positive cells; experiment: XTT cell proliferation assay; assay type: cell-based, human
Method: as §1, with “The suppression of caspase-8 was verified by western blot.” left out
(§2) Cytotoxicity Assay. Cytotoxicity of ScA was assessed using the XTT cell proliferation assay. […] The plates were then incubated under standard tissue culture conditions until the control wells (DMSO) reached an OD value between 1.0-1.5. as measured at 450 nm using a microtiter plate reader. The cell viability-drug dilution profiles were obtained from sigma plots, and drug concentrations which inhibited growth by 50% were calculated from multiple runs. […]

Jurkat cells = experiment: apoptosis of Jurkat cells by FACS analysis of DNA content; assay type: cell-based; conditions: 50 or 300 nM, 6 hours
Method: FIG. 28(B): A549 cells were fixed and costained using antibodies directed against ceramide (red channel) (Bars in A/B=[…]). Arrows indicate regions of “blebbing.” The nuclear compartment was visualized using DAPI to stain DNA (blue channel). The assessments were performed two hours after treatment with 300 nM ScA. FIG. 28(C): Immunoblot analysis of Jurkat cells was performed following treatment with 100 nM ScA. 25 μg of cell lysates was probed for caspases 8, 3 and 9 and for PARP and actin (loading control) as indicated. FIG. 28(D): Caspase 8 deficient (Casp 8), FADD deficient (FADD −) or parental Jurkat cells (Jurkat) were incubated with 50 or 300 nM for 6 hours and analyzed for the presence of apoptotic cells via FACs analysis of DNA content. Results shown are the mean and standard error of triplicate determinations. […] Viability was measured by XTT assay after 72 hours, and normalized to controls not treated with drug. FIG. 28(F): similarly, the viability of neuroblastoma cultures deficient in caspase expression, or reconstituted for caspase 8 expression, was determined as for the A549 cells above. […]
FACS analysis Cell viability was analyzed by flow cytometry following propidium iodide (PI) staining, as described elsewhere (37). […] The extent of apoptosis was determined by plotting PI fluorescence versus the forward scatter parameter, using CELL QUEST™ software.

[2] = solubility in aqueous media; assay type: physicochemical
[3] = test system: mouse neuro-2a neuroblastoma cells; conditions: cytotoxicity; cited from earlier work
NB7 neuroblastoma cells = experiment: XTT cell proliferation assay; assay type: cell-based; conditions: Homo sapiens, anti-proliferative effect, FIG. 6, caspase 8 deficient
Method: as §1, with “The suppression of caspase-8 was verified by western blot.” left out
as §2

[4] = test system: chick chorioallantoic membrane; experiment: bFGF-induced angiogenesis in chick chorioallantoic membrane; assay type: in vivo; conditions: local introduction, 100 ng bFGF disks, 72 hours
Method: FIG. 31(A-F): Transgenic Tg(fli1:EGFP) zebrafish embryos in which GFP is expressed in endothelial cells were incubated without (A) or with increasing concentrations of ScA: 80 nM in FIG. 31(B), 160 nM in FIG. 31(C), 300 nM in FIG. 31(D) 1.6 μM in FIG. 31(E) or 3 μM in FIG. 31(F), and blood vessel morphology recorded by fluorescence microscopy. FIG. 31(G) Filter disks impregnated with 100 ng of bFGF were placed on the chorioallantoic membrane of eleven day old chicks to induce angiogenesis in the absence or presence of ScA, as shown. After 72 hours (h), disks were removed and the vascularity of the underlying chorioallantoic membrane determined by direct counting of branch points using a dissecting microscope. FIG. 31(H): NB7 neuroblastoma cells lacking caspase 8 (filled bar) or NB7-C8 cells reconstituted for caspase 8 expression (open bars) were seeded into ten day old chick chorioallantoic membranes to form tumors. After 72 hours, ScA was added topically to each growing tumor mass. Tumors were harvested and resected on day 8, and mass (wet weight) determined. Data shown is the mean±SD (N=8-12).
Chick Chorioallantoic membrane studies. The CAM studies were performed using 10 day old chick embryos as we've previously described (36). […]

## C=CC/C=C/N(C)C(=O)CCCCCCCC/C=C/[C@H](CSSC[C@@H](/C=C/CCCCCCCCC(=O)N(C)/C=C/CC=C)NC(C)=O)NC(C)=O [somocystinamide A, Somocystinamide A]
A-549 lung cancer cells; A549, anti-proliferative effect, FIG. 6
  IC50: 46 nM
A-549 lung cancer cells; A549, percent cell viability, FIG. 16
  IC50: 114 nM
A-549 lung cancer cells; lentivirus shRNA silencing of caspase 8 or caspase 3, FIG. 24
  pro-apoptotic response induced by scA: attenuate the pro-apoptotic response
A-549 lung cancer cells; shRNA knockdown of caspase 8, FIG. 28E
  loss in sensitivity to ScA: five-fold
[1]; Homo sapiens, anti-proliferative effect, FIG. 6
  IC50: 12 nM
[1]; relative to NB7 cells
  sensitivity of the caspase 8 positive cells to ScA: 100 times
Jurkat cells; Jurkat cells lacking FADD
  ScA-mediated killing: protected from ScA-mediated killing
Jurkat cells; caspase 8-deficient Jurkat cells compared to wild type
  apoptosis: dramatically decreased
[2]
  solubility: limited solubility
[3]
  IC50: 1.4 µg/mL (≈ 1.84 µM)
NB7 neuroblastoma cells
  IC50: 810 nM
[4]
  growth factor-induced angiogenesis: potently blocked growth factor-induced angiogenesis
